Test results reported in US8071141B2, “Compositions for preventing or ameliorating multiple risk factor syndromes” (priority 2000, dated 2011).
Structures can show the parent of a compound that is named as a salt. Where two headings read alike, the source gives them in different places.

Columns and labels:
[1] = system: spontaneously hypertensive rats (SHR); assay: Test Example 5: efficacy in spontaneously hypertensive rats; format: in vivo; details: licorice extract (Preparation Example 3) 300 mg/kg/day or enalapril maleate 20 mg/kg/day orally
Experimental: As a positive control, enalapril maleate, an antihypertensive agent, was used.
During the period, the mice had free access to food (CRF-1, Oriental Yeast Co.) and water.
On the day immediately preceding the start of treatment and on day 7, day 14, and day 21 of treatment, the blood pressure was measured at the tail artery using a non-invasive automatic hemomanometer (BP-97A, Softron Co., Ltd.). The measurement of blood pressure was performed before each administration of the sample.

KK-Ay mice [2] = assay: Test Example 7: efficacy of turmeric extract in type II diabetic model mice; format: in vivo; details: pioglitazone 0.04% or turmeric extract (Preparation Example 5) 0.5% in food
Source text: (§1) As a positive control, the antidiabetic agent pioglitazone was used. […] As pioglitazone, Actos Tab.

KK-Ay mice [3] = assay: Test Example 9: efficacy of clove extract in type II diabetic model mice; format: in vivo; details: pioglitazone 0.02% or clove extract (Preparation Example 7) 0.5% in food
Source text: as §1

KK-Ay mice [4] = assay: Test Example 3: preventing effect on diabetes mellitus in type II diabetic model mice-2; format: in vivo; details: pioglitazone 0.04% or licorice extract (Preparation Example 2) 0.2% in food
Source text: Regarding troglitazone, Noscal Tab.
As a positive control, the antidiabetic agent pioglitazone was used. As pioglitazone, Actos Tab. […] For the determination of blood glucose, the simple blood glucose test Glutest Ace (Sanwa Kagaku Kenkyusho Co., Ltd.) was used.

KK-Ay mice [5] = assay: Test Example 4: ameliorating effect on diabetes mellitus in type II diabetic model mice; format: in vivo; details: pioglitazone 0.02% or licorice extract (Preparation Example 2) 0.2% in food
Source text: As a positive control, the antidiabetic agent pioglitazone was used.
The mice had free access to food for 7 days. […] For the determination of blood glucose, the simple blood glucose test Glutest Ace (Sanwa Kagaku Kenkyusho Co., Ltd.) was used.

KK-Ay mice [6] = details: for Blood glucose: troglitazone 0.2% or licorice extract (Preparation Example 1) 0.15% in food
Experimental: As a positive control, the antidiabetic agent troglitazone was used.
Regarding troglitazone, Noscal Tab. 200 (200 mg of troglitazone in each tablet; Sankyo Co., Ltd.) was pulverized in an agate mortar and added to the normal food at a final concentration of 0.2%.
During the feeding period, small samples of blood were taken weekly from the mouse tail vein and the blood glucose was determined with the simple blood glucose test Novo Assist Plus (Novo Nordisk Pharma Ltd.).
At the end of the feeding period, the mice were fasted overnight and the abdomen was opened under ether anesthesia.
The blood was withdrawn from the abdominal aorta and the liver was excised and weighed. In addition, Sogo Ikagaku Kenkyusho Co., Ltd. was entrusted with analyses for serum total cholesterol (T-CHO), triglyceride (TG), free fatty acid (NEFA), GOT, GPT, LAP, cholinesterase (ChoE), total protein (TP-S), albumin (ALB-S), and A/G ratio.

[7] = end of 4-week feeding, overnight fast, troglitazone 0.2% or licorice extract 0.15% in food

CCOC(=O)[C@H](CCc1ccccc1)N[C@@H](C)C(=O)N1CCC[C@H]1C(=O)O [Enalapril maleate, enalapril maleate]
Blood pressure ([1]; Before start, tail artery): 111 ± 2.5 mmHg | Blood pressure ([1]; Day 7, tail artery): 118 ± 3.2 mmHg | Blood pressure ([1]; Day 14, tail artery): 119 ± 3.4 mmHg | Blood pressure ([1]; Day 21, tail artery): 134 ± 3.1 mmHg

CCc1ccc(CCOc2ccc(CC3SC(=O)NC3=O)cc2)nc1 (stereo not shown) [Pioglitazone, pioglitazone]
Blood glucose (KK-Ay mice [2]; 1 week): 163 ± 23 mg/dL | Blood glucose (KK-Ay mice [2]; 2 week): 182 ± 9 mg/dL | Blood glucose (KK-Ay mice [2]; 3 week): 166 ± 18 mg/dL | Blood glucose (KK-Ay mice [2]; 4 week): 153 ± 21 mg/dL | Blood glucose (KK-Ay mice [2]; Start): 151 ± 9 mg/dL | Blood glucose (KK-Ay mice [3]; 1 week): 208 ± 21 mg/dL | Blood glucose (KK-Ay mice [3]; 2 week): 192 ± 17 mg/dL | Blood glucose (KK-Ay mice [3]; 3 week): 164 ± 16 mg/dL | Blood glucose (KK-Ay mice [3]; Start): 156 ± 16 mg/dL | Blood glucose (KK-Ay mice [4]; 1 week): 163 ± 23 mg/dL | Blood glucose (KK-Ay mice [4]; 2 week): 182 ± 9 mg/dL | Blood glucose (KK-Ay mice [4]; 3 week): 167 ± 18 mg/dL | Blood glucose (KK-Ay mice [4]; 4 week): 153 ± 21 mg/dL | Blood glucose (KK-Ay mice [4]; Start): 151 ± 9 mg/dL | Blood glucose (KK-Ay mice [5]; Day 4): 168 ± 49 mg/dL | Blood glucose (KK-Ay mice [5]; Day 7): 143 ± 16 mg/dL | Blood glucose (KK-Ay mice [5]; Start, hyperglycemic 15-week-old mice): 378 ± 36 mg/dL

Cc1c(C)c2c(c(C)c1O)CCC(C)(COc1ccc(CC3SC(=O)NC3=O)cc1)O2 (stereo not shown) [Troglitazone, troglitazone]
Blood glucose (KK-Ay mice [6]; 1 week): 217 ± 74 mg/dL | Blood glucose (KK-Ay mice [6]; 2 week): 173 ± 40 mg/dL | Blood glucose (KK-Ay mice [6]; 3 week): 304 ± 77 mg/dL | Blood glucose (KK-Ay mice [6]; 4 week): 246 ± 51 mg/dL | Blood glucose (KK-Ay mice [6]; Start): 145 ± 11 mg/dL | NEFA (serum free fatty acid) (KK-Ay mice [6]; [7]): 1750 ± 302 μEq/L | T-CHO (serum total cholesterol) (KK-Ay mice [6]; [7]): 163 ± 7 mg/dL | TG (serum triglyceride) (KK-Ay mice [6]; [7]): 39 ± 14 mg/dL | A/G ratio (KK-Ay mice [6]; mouse, in vivo): 0.98 ± 0.05 | ALB-S (albumin) (KK-Ay mice [6]; mouse, in vivo): 2.50 ± 0.12 g/dL | GOT (KK-Ay mice [6]; mouse, in vivo): 121 ± 26 IU/L | GPT (KK-Ay mice [6]; mouse, in vivo): 70.5 ± 26.2 IU/L | LAP (KK-Ay mice [6]; mouse, in vivo): 60.8 ± 6.1 IU/L | TP-S (total protein) (KK-Ay mice [6]; mouse, in vivo): 5.13 ± 0.17 g/dL | elevation in GOT compared with the non-treatment group (KK-Ay mice [6]; mouse, in vivo): 13% | ChoE (cholinesterase) (KK-Ay mice [6]; serum, end of 4-week feeding, troglitazone 0.2% or licorice extract 0.15% in food): 153 ± 9 IU/L
